From patent publication US20030181527A1, “Novel formulations of alpha-2,4-disulfophenyl-n-tert-butylnitrone” (priority 2000, published 2003)

How the values were obtained:
[1] = tested on: A. niger; assay: Antimicrobial efficacy (European Pharmacopoeia 2000, Chapter 5.1.3); type: cell-based; details: 400 mg/ml
Method: (§1) The antimicrobial efficacy was tested for three different solutions:
(§2) i) α-(2,4-disulfophenyl)-N-tert-butylnitrone disodium salt, 10 mg/ml;
(§3) ii) α-(2,4-disulfophenyl)-N-tert-butylnitrone disodium salt, 400 mg/ml; and
(§4) iii) a carbonate buffer control.
(§5) The tests were performed according to European Pharmacopoeia 2000, Chapter 5.1.3, pages 259 to 260. Seven 10 ml vials were inoculated, one per test organism. During the tests, the vials were stored at controlled room temperature and protected from light. At different time intervals, samples were withdrawn and after appropriate dilutions the numbers of viable microorganisms (colony forming units per ml, CFU/ml) were determined using standard plate count procedures.

[2] = tested on: Bur. cepacia; assay: as above; type: cell-based
Method: as §1, §2, §3, §4, §5

[3] = Stability of 100 mg/ml aqueous solution with added factors (chelating agent, antioxidant, oxygen removal, pH); type: physicochemical
Method: The effects of several added factors were investigated in experiments designed using a multivariate technique. An aqueous solution of α-(2,4-disulfophenyl)-N-tert-butylnitrone disodium salt (100 mg/ml) containing less than 0.3% 2,4-disulphobenzaldehyde disodium salt (II) was placed in sealed 10 ml glass vials with a fill volume of 10 ml. The concentrations of the degradation products and particularly of 2,4-disulphobenzaldehyde disodium salt (II) were measured by a chromatographic method after accelerated storage conditions at +40° C. and 75% relative humidity for two months.
Values are mean±standard deviation. n indicates the number of independent experiments. A t-test was performed to evaluate the significance of the different factors.

[4] = Stability versus concentration, vial size and headspace gas at +40° C. (Table 6); type: physicochemical
Method: For the 10 ml vial size, the fill volume was 10.7 ml; and for the 20 ml vial size, the fill volume was 20.7 ml.

[5] = Stability versus vial headspace volume (fill volume); type: physicochemical; details: 400 mg/ml; for Final Amount of Aldehyde (II): pH 8.5, headspace not purged, 2 months +40° C./75% RH
Method: A concentrated aqueous solution of α-(2,4-disulfophenyl)-N-tert-butylnitrone disodium salt (400 mg/ml) and disodium hydrogen phosphate (10.5 mM) at pH 8.5 was purged with nitrogen for 30 minutes. Either 8 ml or 13 ml portions of this solution were then placed in standard 10 ml glass vials (the maximum possible fill volume of a standard 10 ml glass vial is 13 ml). The headspace was not purged with nitrogen. The vials were sealed and stored at +40° C. and 75% relative humidity for two months.

CC(C)(C)[N+]([O-])=Cc1ccc(S(=O)(=O)[O-])cc1S(=O)(=O)[O-].[Na+].[Na+] [α-(2,4-disulfophenyl)-N-tert-butylnitrone disodium salt]
Number of CFUs per ml - Time after Inoculation ([1]; 28 days): <1 CFUs per ml | Number of CFUs per ml - Time after Inoculation ([1]; <1 min): 1.0 × 10^5 CFUs per ml | Number of CFUs per ml - Time after Inoculation ([2]; 10 mg/ml, 6 h): 1.5 × 10^3 CFUs per ml | Number of CFUs per ml - Time after Inoculation ([2]; 10 mg/ml, 24 h): <1 CFUs per ml | Number of CFUs per ml - Time after Inoculation ([2]; 10 mg/ml, 48 h): <1 CFUs per ml | Number of CFUs per ml - Time after Inoculation ([2]; 10 mg/ml, 7 days): <1 CFUs per ml | Number of CFUs per ml - Time after Inoculation ([2]; 10 mg/ml, 14 days): <1 CFUs per ml | Number of CFUs per ml - Time after Inoculation ([2]; 10 mg/ml, 21 days): <1 CFUs per ml | Number of CFUs per ml - Time after Inoculation ([2]; 10 mg/ml, 28 days): <1 CFUs per ml | Number of CFUs per ml - Time after Inoculation ([2]; 10 mg/ml, <1 min): 3.5 × 10^5 CFUs per ml | Number of CFUs per ml - Time after Inoculation ([2]; 400 mg/ml, 6 h): 8.7 × 10^1 CFUs per ml | Number of CFUs per ml - Time after Inoculation ([2]; 400 mg/ml, 24 h): <1 CFUs per ml | Number of CFUs per ml - Time after Inoculation ([2]; 400 mg/ml, 48 h): <1 CFUs per ml | Number of CFUs per ml - Time after Inoculation ([2]; 400 mg/ml, 7 days): <1 CFUs per ml | Number of CFUs per ml - Time after Inoculation ([2]; 400 mg/ml, 14 days): <1 CFUs per ml | Number of CFUs per ml - Time after Inoculation ([2]; 400 mg/ml, 21 days): <1 CFUs per ml | Number of CFUs per ml - Time after Inoculation ([2]; 400 mg/ml, 28 days): <1 CFUs per ml | Number of CFUs per ml - Time after Inoculation ([2]; 400 mg/ml, <1 min): 1.1 × 10^5 CFUs per ml | Reduction in colony forming units per ml (CFU/ml) ([2]; 400 mg/ml, within 6 hours): ≥ 10^3 fold | Initial content of 2,4-disulphobenzaldehyde disodium salt (II) ([3]; 100 mg/ml aqueous solution, before storage): less than 0.3% | Final Amount of Aldehyde (II) ([3]; 100 mg/ml, added EDTA, pH 7.0 to 8.8, 2 months +40° C./75% RH): 2.27 ± 0.12 area % | Final Amount of Aldehyde (II) ([3]; 100 mg/ml, added ascorbate, pH 7.0 to 7.3, 2 months +40° C./75% RH): 1.32 ± 0.11 (p < 0.001) area % | Final Amount of Aldehyde (II) ([3]; 100 mg/ml, added factor none, pH 7.0 to 8.2, 2 months +40° C./75% RH): 2.20 ± 0.11 area % | Final Amount of Aldehyde (II) ([3]; 100 mg/ml, nitrogen purge, pH 7.0 to 8.6, 2 months +40° C./75% RH): 1.34 ± 0.18 (p < 0.001) area % | Effect of pH on the degree of decomposition ([3]; pH 7 to 9, 100 mg/ml, 2 months +40° C./75% RH): no significant effect | Amount of Aldehyde (II) ([4]; 50 mg/ml, 10 ml vial, N2 in headspace, 2 months at +40° C.): 1.4 w/w % | Amount of Aldehyde (II) ([4]; 50 mg/ml, 10 ml vial, N2 in headspace, 3 months at +40° C.): 1.5 w/w % | Amount of Aldehyde (II) ([4]; 50 mg/ml, 10 ml vial, N2 in headspace, 6 months at +40° C.): 1.7 w/w % | Amount of Aldehyde (II) ([4]; 50 mg/ml, 10 ml vial, N2 in headspace, initial): 0.2 w/w % | Amount of Aldehyde (II) ([4]; 50 mg/ml, 10 ml vial, air in headspace, 2 months at +40° C.): 2.8 w/w % | Amount of Aldehyde (II) ([4]; 50 mg/ml, 10 ml vial, air in headspace, 3 months at +40° C.): 3.3 w/w % | Amount of Aldehyde (II) ([4]; 50 mg/ml, 10 ml vial, air in headspace, 6 months at +40° C.): 3.5 w/w % | Amount of Aldehyde (II) ([4]; 50 mg/ml, 10 ml vial, air in headspace, initial): 0.2 w/w % | Amount of Aldehyde (II) ([4]; 100 mg/ml, 10 ml vial, air in headspace, 2 months at +40° C.): 1.8 w/w % | Amount of Aldehyde (II) ([4]; 100 mg/ml, 10 ml vial, air in headspace, initial): 0.2 w/w % | Amount of Aldehyde (II) ([4]; 400 mg/ml, 10 ml vial, N2 in headspace, 2 months at +40° C.): 0.5 w/w % | Amount of Aldehyde (II) ([4]; 400 mg/ml, 10 ml vial, N2 in headspace, 3 months at +40° C.): 0.6 w/w % | Amount of Aldehyde (II) ([4]; 400 mg/ml, 10 ml vial, N2 in headspace, initial): 0.3 w/w % | Amount of Aldehyde (II) ([4]; 400 mg/ml, 10 ml vial, air in headspace, 2 months at +40° C.): 0.8 w/w % | Amount of Aldehyde (II) ([4]; 400 mg/ml, 10 ml vial, air in headspace, 3 months at +40° C.): 0.9 w/w % | Amount of Aldehyde (II) ([4]; 400 mg/ml, 10 ml vial, air in headspace, initial): 0.3 w/w % | Amount of Aldehyde (II) ([4]; 400 mg/ml, 20 ml vial, N2 in headspace, 2 months at +40° C.): 0.5 w/w % | Amount of Aldehyde (II) ([4]; 400 mg/ml, 20 ml vial, N2 in headspace, 3 months at +40° C.): 0.5 w/w % | Amount of Aldehyde (II) ([4]; 400 mg/ml, 20 ml vial, N2 in headspace, initial): 0.3 w/w % | Amount of Aldehyde (II) ([4]; 400 mg/ml, 20 ml vial, air in headspace, 2 months at +40° C.): 0.7 w/w % | Amount of Aldehyde (II) ([4]; 400 mg/ml, 20 ml vial, air in headspace, 3 months at +40° C.): 0.8 w/w % | Amount of Aldehyde (II) ([4]; 400 mg/ml, 20 ml vial, air in headspace, initial): 0.3 w/w % | Initial aldehyde level ([5]; 10.5 mM phosphate, pH 8.5, nitrogen purged, initial): 0.1% | Final Amount of Aldehyde (II) ([5]; fill volume 8 ml in 10 ml vial): 1.1 area % | Final Amount of Aldehyde (II) ([5]; fill volume 13 ml in 10 ml vial): 0.6 area %
